{"source": "patent US8697873B2", "about": "“Amide substituted imidazopyridines, imidazoquinolines, and imidazonaphthyridines” (3M Innovative Properties Company, priority 2004, dated 2014)", "note": "Counter-ions that a name gives are not always drawn.", "data": [{"units": {"melting point": "°C"}, "values": [{"compound": "CCCc1nc2c(N)nc(C)c(C)c2n1CCCC(N)=O", "note": "[Example 40, 4-(4-Amino-6,7-dimethyl-2-propyl-1H-imidazo[4,5-c]pyridin-1-yl)butanamide]", "melting point": "226 to 228"}, {"compound": "CCOCc1nc2c(N)nc3ccccc3c2n1CCCCC(N)=O", "note": "[Example 49, 5-[4-Amino-2-(ethoxymethyl)-1H-imidazo[4,5-c]quinolin-1-yl]pentanamide]", "melting point": "198 to 200"}, {"compound": "CCCc1nc2c(N)nc3ccccc3c2n1CCCCCC(N)=O", "note": "[Example 9, 6-(4-Amino-2-propyl-1H-imidazo[4,5-c]quinolin-1-yl)hexanamide]", "melting point": "210 to 211"}, {"compound": "CCc1nc2c(N)nc(C)c(C)c2n1CCCC(=O)N1CCOCC1", "note": "[Example 43, 2-Ethyl-6,7-dimethyl-1-(4-morpholin-4-yl-4-oxobutyl)-1H-imidazo[4,5-c]pyridin-4-amine]", "melting point": "209 to 210"}, {"compound": "CCOCc1nc2c(N)nc(C)c(C)c2n1CCCC(=O)N1CCOCC1", "note": "[Example 45, 2-(Ethoxymethyl)-6,7-dimethyl-1-(4-morpholin-4-yl-4-oxobutyl)-1H-imidazo[4,5-c]pyridin-4-amine]", "melting point": "156 to 158"}, {"compound": "Cc1nc2c(N)nc3ccccc3c2n1CCC(N)=O", "note": "[Example 31, 3-(4-Amino-2-methyl-1H-imidazo[4,5-c]quinolin-1-yl)propanamide]", "melting point": "237 to 239"}, {"compound": "CCOCc1nc2c(N)nc3ccccc3c2n1CCCCCC(=O)N1CCOCC1", "note": "[Example 13, 2-(Ethoxymethyl)-1-(6-morpholin-4-yl-6-oxohexyl)-1H-imidazo[4,5-c]quinolin-4-amine]", "melting point": "160 to 162"}, {"compound": "CC(C)(Cn1c(CO)nc2c(N)nc3ccccc3c21)C(N)=O", "note": "[Example 68, 3-[4-Amino-2-(hydroxymethyl)-1H-imidazo[4,5-c]quinolin-1-yl)-2,2-dimethylpropanamide]", "melting point": "201 to 203"}, {"compound": "CCCc1nc2c(N)nc3ccccc3c2n1CCCCCC(=O)N1CCOCC1", "note": "[Example 6, 1-(6-Morpholin-4-yl-6-oxohexyl)-2-propyl-1H-imidazo[4,5-c]quinolin-4-amine]", "melting point": "149 to 151"}, {"compound": "CCCCc1nc2c(N)nc3ccccc3c2n1CC(C)(C)C(N)=O", "note": "[Example 63, 3-(4-Amino-2-butyl-1H-imidazo[4,5-c]quinolin-1-yl)-2,2-dimethylpropanamide]", "melting point": "231 to 233"}, {"compound": "Cc1nc2c(N)nc3ccccc3c2n1CC(C)(C)C(N)=O", "note": "[Example 61, 3-(4-Amino-2-methyl-1H-imidazo[4,5-c]quinolin-1-yl)-2,2-dimethylpropanamide]", "melting point": "284 to 287"}, {"compound": "CCCc1nc2c(N)nc3ccccc3c2n1CCC(=O)N(C)C", "note": "[Example 51, 3-(4-Amino-2-propyl-1H-imidazo[4,5-c]quinolin-1-yl)-N,N-dimethylpropanamide]", "melting point": "207 to 209"}, {"compound": "CCc1nc2c(N)nc3cccnc3c2n1CCCCCC(N)=O", "note": "[Example 56, 6-(4-Amino-2-ethyl-1H-imidazo[4,5-c][1,5]naphthyridin-1-yl)hexanamide]", "melting point": "220 to 221"}, {"compound": "CCCc1nc2c(N)nc3ccccc3c2n1CCCCC(N)=O", "note": "[Example 35, 5-(4-Amino-2-propyl-1H-imidazo[4,5-c]quinolin-1-yl)pentanamide]", "melting point": "202 to 203"}, {"compound": "Nc1nc2ccccc2c2c1ncn2CCCCCC(=O)N1CCOCC1", "note": "[Example 11, 1-(6-Morpholin-4-yl-6-oxohexyl)-1H-imidazo[4,5-c]quinolin-4-amine]", "melting point": "166 to 168"}, {"compound": "CCc1nc2c(N)nc(C)c(C)c2n1CCCC(N)=O", "note": "[Example 42, 4-(4-Amino-2-ethyl-6,7-dimethyl-1H-imidazo[4,5-c]pyridin-1-yl)butanamide]", "melting point": "228 to 230"}, {"compound": "CCOCc1nc2c(N)nc3ccccc3c2n1CCCC(N)=O", "note": "[Example 33, 4-[4-Amino-2-(ethoxymethyl)-1H-imidazo[4,5-c]quinolin-1-yl]butanamide]", "melting point": "233 to 235"}, {"compound": "Cc1nc2c(N)nc3ccccc3c2n1CCC(=O)N1CCOCC1", "note": "[Example 22, 2-Methyl-1-(3-morpholin-4-yl-3-oxopropyl)-1H-imidazo[4,5-c]quinolin-4-amine]", "melting point": "166 to 169"}, {"compound": "CCCNC(=O)CCCCCn1c(COCC)nc2c(N)nc3ccccc3c21", "note": "[Example 14, 6-[4-Amino-2-(ethoxymethyl)-1H-imidazo[4,5-c]quinolin-1-yl]-N-propylhexanamide]", "melting point": "161 to 162"}, {"compound": "CCc1nc2c(N)nc3ccccc3c2n1CC1(C(N)=O)CCC1", "note": "[Example 66, 1-[(4-Amino-2-ethyl-1H-imidazo[4,5-c]quinolin-1-yl)methyl]cyclobutanecarboxamide]", "melting point": "227 to 230"}, {"compound": "CCCc1nc2c(N)nc3ccccc3c2n1CC(C)(C)C(=O)N1CCOCC1", "note": "[Example 27, 1-(2,2-Dimethyl-3-morpholin-4-yl-3-oxopropyl)-2-propyl-1H-imidazo[4,5-c]quinolin-4-amine]", "melting point": "212 to 214"}, {"compound": "CCCc1nc2c(N)nc3ccccc3c2n1CC(C)(C)C(N)=O", "note": "[Example 26, 3-(4-Amino-2-propyl-1H-imidazo[4,5-c]quinolin-1-yl)-2,2-dimethylpropanamide]", "melting point": "219 to 221"}, {"compound": "CCCNC(=O)CCCCCn1cnc2c(N)nc3ccccc3c21", "note": "[Example 10, 6-(4-Amino-1H-imidazo[4,5-c]quinolin-1-yl)-N-propylhexanamide]", "melting point": "128 to 130"}, {"compound": "CCCc1nc2c(N)nc3ccccc3c2n1CCCCCC(=O)NC", "note": "[Example 8, 6-(4-Amino-2-propyl-1H-imidazo[4,5-c]quinolin-1-yl)-N-methylhexanamide]", "melting point": "158 to 159"}, {"compound": "Cc1nc2c(N)nc3ccccc3c2n1CCCCC(=O)N1CCOCC1", "note": "[Example 47, 2-Methyl-1-(5-morpholin-4-yl-5-oxopentyl)-1H-imidazo[4,5-c]quinolin-4-amine]", "melting point": "218 to 219"}, {"compound": "CCCc1nc2c(N)nc3ccccc3c2n1CCCC(N)=O", "note": "[Example 4, 4-(4-Amino-2-propyl-1H-imidazo[4,5-c]quinolin-1-yl)butanamide]", "melting point": "249 to 251"}, {"compound": "CCOCc1nc2c(N)nc3ccccc3c2n1CC1(C(N)=O)CCCCC1", "note": "[Example 67, 1-{[4-Amino-2-(ethoxymethyl)-1H-imidazo[4,5-c]quinolin-1-yl]methyl}cyclohexanecarboxamide]", "melting point": "221 to 223"}, {"compound": "CNC(=O)CCn1cnc2c(N)nc3ccccc3c21", "note": "[Example 20, 3-(4-Amino-1H-imidazo[4,5-c]quinolin-1-yl)-N-methylpropanamide]", "melting point": "> 260"}, {"compound": "CC(C)(Cn1cnc2c(N)nc3ccccc3c21)C(N)=O", "note": "(as salt: salt) [Example 62, 3-(4-Amino-1H-imidazo[4,5-c]quinolin-1-yl)-2,2-dimethylpropanamide]", "melting point": "287 to 289"}, {"compound": "CCOCc1nc2c(N)nc3ccccc3c2n1CC1(C(N)=O)CC1", "note": "[Example 64, 1-{[4-Amino-2-(ethoxymethyl)-1H-imidazo[4,5-c]quinolin-1-yl]methyl}cyclopropanecarboxamide]", "melting point": "230.5 to 232.5"}, {"compound": "CCOCc1nc2c(N)nc3cccnc3c2n1CCCCCC(=O)N1CCOCC1", "note": "[Example 57, 2-(Ethoxymethyl)-1-(6-morpholin-4-yl-6-oxohexyl)-1H-imidazo[4,5-c][1,5]naphthyridin-4-amine]", "melting point": "168 to 170"}, {"compound": "CCCNC(=O)CCn1c(CCC)nc2c(N)nc3ccccc3c21", "note": "[Example 15, 3-(4-Amino-2-propyl-1H-imidazo[4,5-c]quinolin-1-yl)-N-propylpropanamide]", "melting point": "157 to 158"}]}]}
